Measured values reported in patent US20180318287A1, “Imidazo[4,5-c]quinolin-2-one Compounds and Their Use in Treating Cancer” (ASTRAZENECA AB, priority 2015, published 2018).

Columns and labels:
[1] = biological target: T1, ATM kinase (Homo sapiens, UniProt Q13315); experiment: Assay a): ATM cellular potency (pATM Ser1981 in irradiated HT29 cells); format: cell-based; settings: HT29 cells, X-ray irradiation, pATM Ser1981; Table 2; read-out: Assay a) ATM Cell IC50
T1 construct: endogenous in cells; host or cells: HT29 cells (ECACC #85061109)
T1 sequence (Q13315 whole entry): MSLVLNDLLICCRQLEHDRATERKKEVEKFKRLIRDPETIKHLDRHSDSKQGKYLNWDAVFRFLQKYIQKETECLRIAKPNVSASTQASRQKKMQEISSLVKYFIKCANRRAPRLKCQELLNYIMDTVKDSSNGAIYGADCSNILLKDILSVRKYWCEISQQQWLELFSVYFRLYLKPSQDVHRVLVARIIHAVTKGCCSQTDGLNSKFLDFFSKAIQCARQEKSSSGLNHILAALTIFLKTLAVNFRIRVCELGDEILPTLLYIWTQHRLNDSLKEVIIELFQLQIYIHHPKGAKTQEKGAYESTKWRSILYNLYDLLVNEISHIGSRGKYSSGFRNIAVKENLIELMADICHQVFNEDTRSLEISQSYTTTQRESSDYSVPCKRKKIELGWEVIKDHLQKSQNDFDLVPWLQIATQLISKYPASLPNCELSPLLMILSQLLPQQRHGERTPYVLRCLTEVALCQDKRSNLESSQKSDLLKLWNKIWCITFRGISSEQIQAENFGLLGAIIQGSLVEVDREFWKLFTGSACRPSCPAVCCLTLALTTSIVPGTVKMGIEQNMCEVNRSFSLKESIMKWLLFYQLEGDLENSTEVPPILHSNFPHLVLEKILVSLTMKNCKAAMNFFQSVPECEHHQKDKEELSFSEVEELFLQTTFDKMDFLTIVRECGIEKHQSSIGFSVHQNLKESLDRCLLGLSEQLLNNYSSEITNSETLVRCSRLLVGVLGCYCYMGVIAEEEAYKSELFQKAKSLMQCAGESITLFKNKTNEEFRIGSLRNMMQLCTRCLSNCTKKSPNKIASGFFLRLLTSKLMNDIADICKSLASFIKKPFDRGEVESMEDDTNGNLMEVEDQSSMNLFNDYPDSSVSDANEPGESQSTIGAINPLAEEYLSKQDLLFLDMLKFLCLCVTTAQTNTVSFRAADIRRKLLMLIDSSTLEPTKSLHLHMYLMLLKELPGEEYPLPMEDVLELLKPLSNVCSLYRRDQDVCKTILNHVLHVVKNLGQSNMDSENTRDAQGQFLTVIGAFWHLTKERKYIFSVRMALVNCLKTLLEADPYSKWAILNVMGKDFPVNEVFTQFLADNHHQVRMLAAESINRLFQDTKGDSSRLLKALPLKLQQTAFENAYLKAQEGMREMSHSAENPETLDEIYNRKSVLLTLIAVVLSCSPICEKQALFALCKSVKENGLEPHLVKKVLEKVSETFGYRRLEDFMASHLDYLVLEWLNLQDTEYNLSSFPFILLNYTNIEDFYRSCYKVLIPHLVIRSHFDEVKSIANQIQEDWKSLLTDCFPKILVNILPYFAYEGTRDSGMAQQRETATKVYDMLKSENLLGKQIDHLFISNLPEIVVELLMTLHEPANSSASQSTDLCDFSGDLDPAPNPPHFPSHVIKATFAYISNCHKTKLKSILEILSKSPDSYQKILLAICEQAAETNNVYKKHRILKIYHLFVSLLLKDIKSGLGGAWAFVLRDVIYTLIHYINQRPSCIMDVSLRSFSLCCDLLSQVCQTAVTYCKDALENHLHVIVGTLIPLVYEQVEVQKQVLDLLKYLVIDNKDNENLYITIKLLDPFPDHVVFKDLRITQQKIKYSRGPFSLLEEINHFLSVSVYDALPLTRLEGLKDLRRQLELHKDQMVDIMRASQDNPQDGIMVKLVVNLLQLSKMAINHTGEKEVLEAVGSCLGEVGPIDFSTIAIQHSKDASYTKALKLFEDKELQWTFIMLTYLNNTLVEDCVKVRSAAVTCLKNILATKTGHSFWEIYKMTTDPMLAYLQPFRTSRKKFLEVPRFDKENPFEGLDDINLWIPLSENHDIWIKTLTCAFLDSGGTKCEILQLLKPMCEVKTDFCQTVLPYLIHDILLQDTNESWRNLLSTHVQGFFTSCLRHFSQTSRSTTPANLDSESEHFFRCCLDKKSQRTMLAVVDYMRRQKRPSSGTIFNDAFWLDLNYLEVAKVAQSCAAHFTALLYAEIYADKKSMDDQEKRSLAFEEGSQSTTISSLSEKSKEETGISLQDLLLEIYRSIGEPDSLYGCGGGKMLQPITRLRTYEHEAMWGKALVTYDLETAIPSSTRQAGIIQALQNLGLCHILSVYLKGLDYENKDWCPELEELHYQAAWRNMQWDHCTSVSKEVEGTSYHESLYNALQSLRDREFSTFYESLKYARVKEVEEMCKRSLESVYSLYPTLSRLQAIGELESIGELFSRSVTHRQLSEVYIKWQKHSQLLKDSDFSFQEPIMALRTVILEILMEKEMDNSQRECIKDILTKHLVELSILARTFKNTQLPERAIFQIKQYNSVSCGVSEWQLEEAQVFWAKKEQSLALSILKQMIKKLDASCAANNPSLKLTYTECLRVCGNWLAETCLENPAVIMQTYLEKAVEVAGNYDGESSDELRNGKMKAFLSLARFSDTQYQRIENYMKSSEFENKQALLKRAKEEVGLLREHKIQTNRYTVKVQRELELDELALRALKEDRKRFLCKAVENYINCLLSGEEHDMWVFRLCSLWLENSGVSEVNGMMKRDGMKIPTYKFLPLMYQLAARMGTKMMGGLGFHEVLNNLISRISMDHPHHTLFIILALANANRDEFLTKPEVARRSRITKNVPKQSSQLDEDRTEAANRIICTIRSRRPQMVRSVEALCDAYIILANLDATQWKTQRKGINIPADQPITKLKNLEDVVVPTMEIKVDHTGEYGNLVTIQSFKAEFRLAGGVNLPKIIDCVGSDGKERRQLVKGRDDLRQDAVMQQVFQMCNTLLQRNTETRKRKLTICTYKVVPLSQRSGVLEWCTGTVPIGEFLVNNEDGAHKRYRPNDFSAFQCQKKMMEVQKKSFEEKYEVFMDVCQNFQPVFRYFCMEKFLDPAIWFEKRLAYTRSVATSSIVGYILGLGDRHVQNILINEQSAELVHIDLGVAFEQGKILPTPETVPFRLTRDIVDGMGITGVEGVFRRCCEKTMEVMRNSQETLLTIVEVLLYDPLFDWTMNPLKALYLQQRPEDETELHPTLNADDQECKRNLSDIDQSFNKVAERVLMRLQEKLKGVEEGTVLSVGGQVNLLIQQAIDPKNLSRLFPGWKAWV
Description: Most ATM molecules in the cell are rapidly phosphorylated on this site after doses of radiation as low as 0.5 Gy, and binding of a phosphospecific antibody is detectable after the introduction of only a few DNA double-strand breaks in the cell.
The rationale of the p ATM assay is to identify inhibitors of ATM in cells. HT29 cells are incubated with test compounds for 1 hr prior to X-ray-irradiation. 1 h later the cells are fixed and stained for p ATM (Ser1981). The fluorescence is read on the arrayscan imaging platform.
The following morning compounds of Formula (I) in 100% DMSO were added to assay plates by acoustic dispensing. After 1 h incubation at 37° C. and 5% CO2, plates (up to 6 at a time) were irradiated using the X-RAD 320 instrument (PXi) with equivalent to ˜600cGy. Plates were returned to the incubator for a further 1 h. […] Then 20 μl of 0.1% Triton X100 in PBS was added and incubated for 20 minutes at r.t., to permeabalise cells. Then the plates were washed once with […] PBS, using a Biotek EL405 plate washer.
After 1 h incubation at r.t., the plates were washed three times with 50 μl/well PBS, using a Biotek EL405 plate washer, and plates were sealed and kept in PBS at 4° C. until read. Plates were read using an ArrayScan VTI instrument, using an XF53 filter with 10× objective.

[2] = biological target: T2, ATR kinase (Homo sapiens, UniProt Q13535); experiment: Assay b): ATR cellular potency (pChk1 Ser345 in HT29 cells after 4NQO); format: cell-based; settings: HT29 cells, 4NQO, pChk1 Ser345; Table 2; read-out: Assay b) ATR Cell IC50
T2 construct: endogenous in cells; host or cells: HT29 cells (ECACC #85061109)
Description: ATR is a PI 3-kinase-related kinase which phosphorylates multiple substrates on serine or threonine residues in response to DNA damage during or replication blocks. Chk1, a downstream protein kinase of ATR, plays a key role in DNA damage checkpoint control. Activation of Chk1 involves phosphorylation of Ser317 and Ser345 (the latter regarded as the preferential target for phosphorylation/activation by ATR).
The following morning compound of Formula (I) in 100% DMSO were added to assay plates by acoustic dispensing. After 1 h incubation at 37° C. and 5% CO2, 40 nl of 3 mM 4NQO in 100% DMSO was added to all wells by acoustic dispensing, except minimum control wells which were left untreated with 4NQO to generate a null response control. Plates were returned to the incubator for a further 1 h. […] Then 20 μl of 0.1% Triton X100 in PBS was added and incubated for 10 minutes at r.t., to permeabalise cells. Then the plates were washed once with 50 μl/well PBS, using a Biotek EL405 plate washer.
After 2 h incubation at r.t., the plates were washed three times with 50 μl/well PBS, using a Biotek EL405 plate washer, and plates were then sealed with black plate seals until read. Plates were read using an ArrayScan VTI instrument, using an XF53 filter with 10× objective.

Row | IC50 [1] [nM] | IC50 [2] [nM] | SMILES
1 | 0.23 | > 28800 | CO[C@H]1C[C@@H](n2c(=O)n(C)c3cnc4ccc(-c5ccc(OCCCN6CCCC6)cc5)cc4c32)C1 [Example 41, 1-(cis-3-methoxycyclobutyl)-3-methyl-8-[4-(3-pyrrolidin-1-ylpropoxy)phenyl]imidazo[4,5-c]quinolin-2-one]
2 | 0.984 | > 30000 | CC(C)n1c(=O)n(C)c2cnc3ccc(-c4ccc(OCCCN5CCCC5)cc4)cc3c21 [Example 2, 1-isopropyl-3-methyl-8-[4-(3-pyrrolidin-1-ylpropoxy)phenyl]imidazo[4,5-c]quinolin-2-one]
3 | 0.467 | > 30000 | CO[C@H]1CC[C@H](n2c(=O)n(C)c3cnc4ccc(-c5ccc(OCCCN(C)C)cc5)cc4c32)CC1 [Example 26, 8-[4-[3-(dimethylamino)propoxy]phenyl]-1-(trans-4-methoxycyclohexyl)-3-methyl-imidazo[4,5-c]quinolin-2-one]
4 | 0.458 | > 10000 | CO[C@H]1CC[C@H](n2c(=O)n(C)c3cnc4ccc(-c5ccc(OCCCN6CCCC6)cc5)cc4c32)CC1 [Example 22, 1-(trans-4-methoxycyclohexyl)-3-methyl-8-[4-(3-pyrrolidin-1-ylpropoxy)phenyl]imidazo[4,5-c]quinolin-2-one]
5 | 1.64 | 12800 | CO[C@H]1CCC[C@H](n2c(=O)n(C)c3cnc4ccc(-c5ccc(OCCCN(C)C)cc5)cc4c32)C1 (single isomer, unassigned) [Example 29, 8-[4-[3-(dimethylamino)propoxy]phenyl]-1-[trans-3-methoxycyclohexyl]-3-methyl-imidazo[4,5-c]quinolin-2-one]
6 | – | > 30000 | CC(C)n1c(=O)n(C)c2cnc3ccc(-c4ccc(OCCCN(C)C)cc4)cc3c21 [Example 1, 8-[4-[3-(Dimethylamino)propoxy]phenyl]-1-isopropyl-3-methyl-imidazo[4,5-c]quinolin-2-one]
7 | 0.706 | 10900 | CO[C@H]1CCC[C@H](n2c(=O)n(C)c3cnc4ccc(-c5ccc(OCCCN6CCCC6)cc5)cc4c32)C1 (single isomer, unassigned) [Example 31, 1-[trans-3-methoxycyclohexyl]-3-methyl-8-[4-(3-pyrrolidin-1-ylpropoxy)phenyl]imidazo[4,5-c]quinolin-2-one]
8 | 1.37 | > 29400 | CO[C@@H]1CC[C@@H](n2c(=O)n(C)c3cnc4cc(F)c(-c5ccc(OCCCN(C)C)cc5)cc4c32)C1 (single isomer, unassigned) [Example 14, 8-[4-[3-(dimethylamino)propoxy]phenyl]-7-fluoro-1-[trans-3-methoxycyclopentyl]-3-methyl-imidazo[4,5-c]quinolin-2-one]
9 | 2 | 16800 | Cn1c(=O)n(C2CCOCC2)c2c3cc(-c4ccc(OCCCN5CCCC5)cc4)c(F)cc3ncc21 [Example 46, 7-fluoro-3-methyl-8-[4-(3-pyrrolidin-1-ylpropoxy)phenyl]-1-tetrahydropyran-4-yl-imidazo[4,5-c]quinolin-2-one]
10 | 0.492 | > 18500 | CO[C@H]1CC[C@@H](n2c(=O)n(C)c3cnc4ccc(-c5ccc(OCCCN6CCCC6)cc5)cc4c32)CC1 [Example 27, 1-(cis-4-methoxycyclohexyl)-3-methyl-8-[4-(3-pyrrolidin-1-ylpropoxy)phenyl]imidazo[4,5-c]quinolin-2-one]
11 | 2.29 | 19200 | CO[C@@H]1CCC[C@H](n2c(=O)n(C)c3cnc4ccc(-c5ccc(OCCCN6CCCC6)cc5)cc4c32)C1 (relative stereo) [Example 38, 1-[cis-3-methoxycyclohexyl]-3-methyl-8-[4-(3-pyrrolidin-1-ylpropoxy)phenyl]imidazo[4,5-c]quinolin-2-one]
12 | 0.285 | 11300 | CO[C@H]1CCC[C@H](n2c(=O)n(C)c3cnc4ccc(-c5ccc(OCCCN(C)C)cc5)cc4c32)C1 (single isomer, unassigned) [Example 28, 8-[4-[3-(dimethylamino)propoxy]phenyl]-1-[trans-3-methoxycyclohexyl]-3-methyl-imidazo[4,5-c]quinolin-2-one]
13 | 1.63 | > 30000 | CO[C@H]1CC[C@H](n2c(=O)n(C)c3cnc4cc(F)c(-c5ccc(OCCCN(C)C)cc5)cc4c32)C1 (single isomer, unassigned) [Example 13, 8-[4-[3-(dimethylamino)propoxy]phenyl]-7-fluoro-1-[trans-3-methoxycyclopentyl]-3-methyl-imidazo[4,5-c]quinolin-2-one]
14 | 3.92 | > 30000 | CN(C)CCCOc1ccc(-c2cc3c(cc2F)ncc2c3n([C@H]3CCCOC3)c(=O)n2C)cc1 [Example 10, 8-[4-[3-(dimethylamino)propoxy]phenyl]-7-fluoro-3-methyl-1-[(3S)-tetrahydropyran-3-yl]imidazo[4,5-c]quinolin-2-one]
15 | 0.173 | > 30000 | CC(C)n1c(=O)n(C)c2cnc3ccc(-c4ccc(OCCCN5CCC5)cc4)cc3c21 [Example 3, 8-[4-[3-(azetidin-1-yl)propoxy]phenyl]-1-isopropyl-3-methyl-imidazo[4,5-c]quinolin-2-one]
16 | 0.349 | – | CO[C@H]1CC[C@H](n2c(=O)n(C)c3cnc4ccc(-c5ccc(OCCCN6CCCCC6)cc5)cc4c32)C1 [Example 40, 1-[(1S,3S)-3-methoxycyclopentyl]-3-methyl-8-[4-[3-(1-piperidyl)propoxy]phenyl]imidazo[4,5-c]quinolin-2-one]
17 | 5.77 | > 30000 | CO[C@@H]1CC[C@H](n2c(=O)n(C)c3cnc4cc(F)c(-c5ccc(OCCCN(C)C)cc5)cc4c32)C1 (single isomer, unassigned) [Example 36, 8-[4-[3-(dimethylamino)propoxy]phenyl]-7-fluoro-1-[cis-3-methoxycyclopentyl]-3-methyl-imidazo[4,5-c]quinolin-2-one]
18 | 2.37 | > 30000 | CO[C@@H]1CCC[C@H](n2c(=O)n(C)c3cnc4ccc(-c5ccc(OCCCN(C)C)cc5)cc4c32)C1 (relative stereo) [Example 32, 8-[4-[3-(dimethylamino)propoxy]phenyl]-1-[cis-3-methoxycyclohexyl]-3-methyl-imidazo[4,5-c]quinolin-2-one]
19 | 0.797 | > 26000 | Cn1c(=O)n([C@@H]2CCCOC2)c2c3cc(-c4ccc(OCCCN5CCCC5)cc4)ccc3ncc21 [Example 16, 3-methyl-8-[4-(3-pyrrolidin-1-ylpropoxy)phenyl]-1-[(3R)-tetrahydropyran-3-yl]imidazo[4,5-c]quinolin-2-one]
